Measured values taken from patent US8273777B2, “Glucokinase activators and methods of using same” (Bristol-Meyer Squibb Company, priority 2007, dated 2012).

How the values were obtained:
human glucokinase (GK) = molecular target: T1, human glucokinase (GK) (Homo sapiens, UniProt P35557); assay: Glucokinase tandem enzymatic assay; assay type: biochemical; conditions: 12 mM glucose; for EC50: EC50 = concentration to achieve 50% of full activation; for Emax: expressed as % of basal activation, EC50 could not be calculated, read-out: Maximal activation (%) Human Glucokinase @ 12 mM Glucose
T1 construct: Full-length human hepatic GK (untagged) was expressed in BL21 STAR (DE3)pLysS cells; made in house; host or cells: E. coli BL21 STAR (DE3)pLysS (Invitrogen)
T1 sequence (P35557 1-466 isoform P35557-2): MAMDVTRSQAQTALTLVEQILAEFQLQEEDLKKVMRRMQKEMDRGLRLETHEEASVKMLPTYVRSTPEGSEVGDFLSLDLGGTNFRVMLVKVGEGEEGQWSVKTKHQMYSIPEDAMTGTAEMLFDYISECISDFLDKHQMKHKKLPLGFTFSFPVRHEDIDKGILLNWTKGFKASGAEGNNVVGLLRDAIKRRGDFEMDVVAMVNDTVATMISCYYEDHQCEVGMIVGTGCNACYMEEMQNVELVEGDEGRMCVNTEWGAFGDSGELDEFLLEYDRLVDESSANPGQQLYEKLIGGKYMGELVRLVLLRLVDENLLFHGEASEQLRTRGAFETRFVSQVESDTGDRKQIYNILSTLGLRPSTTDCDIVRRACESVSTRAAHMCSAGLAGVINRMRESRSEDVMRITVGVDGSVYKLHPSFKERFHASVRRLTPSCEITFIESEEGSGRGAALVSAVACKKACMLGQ
Protocol: Glucokinase Tandem Enzymatic Assay
Enzymatic activity of human glucokinase (GK) was measured by incubating GK, ATP, and glucose for discrete time periods followed by quenching with EDTA (ethylenediamine tetra-acetic acid). Relative amounts of product glucose-6-phosphate (G6P) were measured by then running a detection assay using G6P dehydrogenase and measuring the conversion of ThioNAD (thio-nicotinamide adenine dinucleotide) to ThioNADH (thio-dihydronicotinamide adenine dinucleotide) at a wavelength of 405 nm. This ‘uncoupled’ enzymatic reaction is denoted as the GK ‘tandem’ assay. Activation of GK by compounds can be assessed using this assay. The GK tandem assay protocol described below was followed using a range of activator compound concentrations from 0 to 100 μM at 5 and 12 mM of glucose. Human full-length glucokinase (GK, 15 nM) was incubated with 5 or 12 mM glucose in a 384 well black microtiter plate with a clear bottom. To initiate the GK reaction, magnesium-ATP (3 mM final concentration) was added to GK in buffer (final buffer conditions of 25 mM HEPES buffer, pH 7.1, containing 1 mM dithiothreitol and 5% DMSO). The total reaction volume was 20 μL The reaction was allowed to proceed for ten minutes and was then quenched with 5 μL EDTA; 45 mM final). The components of the detection reaction, ThioNAD and G6PDH (glucose-6-phosphate dehydrogenase) (final concentrations of 650 μM and 3.33 Units, respectively), were then added together in a volume of 25 μL (to give a total volume of 50 μL). Absorbance measurements were made at 405 nm on a Spectramax Plus 384 absorbance plate reader (Molecular Devices). Absorbance was read, background glucose-6-phosphate levels were subtracted, after which activation was calculated as a percentage of control activity. Control activity was determined using GK in the presence of vehicle (DMSO), with background glucose-6-phosphate subtracted. Background glucose-6-phosphate was determined by pre-quenching GK with EDTA prior to reaction initiation with ATP.
Expression and Purification of Human GK
Full-length human hepatic GK (untagged) was expressed in BL21 STAR (DE3)pLysS cells (Invitrogen) at 25° C. as described by Mookhtiar et al. (1). The protein was purified essentially as described by Lange (2) with a slight modification. Briefly, cell pellets were lysed via three rounds of freezing and thawing, centrifuged at 15000 g for clarification, and precipitated with 40-65% (NH4)2SO4. The resulting pellet was resuspended in buffer, dialyzed, and applied directly to a Q-Sepharose (Sigma) column followed by elution with a linear 100-600 mM KCl gradient. GK containing fractions were pooled, dialyzed overnight vs. 25 mM Hepes pH 7.2/1 mM MgCl2/1 mM EDTA/0.1 M KCl/1 mM DTT, then dialyzed again with same buffer with 10% glycerol added.

[1] = system: male DIO (diet-induced obese) C57BL/6J mice; assay: Oral glucose tolerance test (OGTT) in DIO mice; assay type: in vivo; conditions: 30 mg/kg dose, given orally 60 min before glucose 2 g/kg, ΔAUC 0-120 min
Protocol: In Vivo Studies: Oral Glucose Tolerance Test (OGTT)
Oral glucose tolerance tests were carried out on male DIO (diet-induced obese) C57BL/6J mice fed a high fat diet (60% kcal from fat) for 26 weeks prior to experimentation. Mice were fasted overnight before use for experiments. A test compound or vehicle (10% dimethyl acetamide +10% ethanol +10% Cremophore +70% water) was given orally 60 min before oral administration of a glucose solution at a dose of 2 g/kg body weight (oral glucose tolerance test; OGTT). Blood glucose levels were measured from tail-bled samples taken at different time points before and after administration of glucose (time course of 2 hours). A time curve of the blood glucose was generated and the change from baseline area-under-the curve (ΔAUC) from 0-120 min was calculated (the time glucose administration being time zero).

| EC50 (human glucokinase (GK)) | Emax (human glucokinase (GK)) | SMILES | reduction of glucose AUC levels in OGTT [1] |
| --- | --- | --- | --- |
| 165 nM |  | COC[C@H](C)Oc1cc(NC(=O)c2nc3ccccc3s2)cc(Oc2ccc(S(C)(=O)=O)cc2)c1 [Example 5] |  |
| 191 nM |  | COC[C@H](C)Oc1cc(NC(=O)c2c[nH]cn2)cc(Oc2ccc(S(C)(=O)=O)cc2)c1 [Example 6] | 66% |
|  | 131% | COC[C@H](C)Oc1cc(NC(=O)c2ncn[nH]2)cc(Oc2ccc(S(C)(=O)=O)cc2)c1 [Example 7] |  |
| 513 nM |  | COC[C@H](C)Oc1cc(NC(=O)c2cc[nH]n2)cc(Oc2ccc(S(C)(=O)=O)cc2)c1 [Example 8] |  |
| 67 nM |  | COC[C@H](C)Oc1cc(NC(=O)c2ncc(C)s2)cc(Oc2ccc(S(C)(=O)=O)cc2)c1 [Example 18] |  |
| 77 nM |  | Cc1cnc(C(=O)Nc2cc(Oc3ccc(S(C)(=O)=O)cc3)cc(O[C@@H](C)CO)c2)s1 [Example 22] |  |
| 575 nM |  | CS(=O)(=O)c1ccc(Oc2cc(NC(=O)c3c[nH]cn3)cc(Oc3ccc(S(C)(=O)=O)cc3)c2)cc1 [Example 31] |  |
|  | 163% | CS(=O)(=O)c1ccc(Oc2cc(NC(=O)c3nccs3)cc(C(F)(F)F)c2)cc1 [Example 37] |  |
